From patent US9255248B2, “Method of producing erythrocytes without feeder cells” (Anthrogenesis Corporation, priority 2009, dated 2016)

Columns and labels:
[1] = system: human UCB derived CD34+ cells; assay: Short-term serum-free, cytokine supplemented expansion of UCB derived CD34+ cells with pomalidomide; format: cell-based; details: for CD34+ phenotype in the expanded population / CD133 level of expanded CD34+ cells / expanded CD34+ cells that are CD38 negative / total nucleated cell expansion: pomalidomide 2.7 μg/mL, 12 days
Method: The ability of pomalidomide to enhance the expansion of human UCB derived CD34^+ cells in a short-term serum-free, cytokine supplemented culture system was evaluated. CD34^+ progenitor cells were enriched from cryopreserved UCB units to >90% purity and seeded (104 CD34^+ cells) in 1 mL of growth medium, which consists of IMDM plus serum substitute BIT (BSA, recombinant human insulin and transferrin, 20%), in the presence of SCF (50 ng/mL), Flt-3 ligand (50 ng/mL), and IL-3 (10 ng/mL). Pomalidomide, dissolved in DMSO, was supplemented at 2.7 μg/mL. The culture was incubated at 37° C., 5% CO2 for 12 days, with fresh medium added at day 7. Pomalidomide-free cultures with or without DMSO (0.05% v/v) were used as controls.

[2] = system: CD34+ cells; assay: Scaled-up pomalidomide-based CD34+ expansion in gas-permeable culture bag; format: cell-based, human
Method: CD34^+ cells were seeded in 10^4/mL pomalidomide-supplemented medium in a flexible, gas-permeable fluorocarbon culture bag (American Fluoroseal). After 7 days of incubation, the culture was centrifuged and exchanged with fresh pomalidomide-supplemented medium at three times the initial volume. By day 12, TNC and CD34^+ expansion were 350 (range: 250-700) and 200 (range: 100-450) fold, respectively (FIG. 4). Viability was 86% (range: 80-90%) by trypan blue. A total of 20 million CD34^+ cells were harvested.

[3] = day 12, culture bag, seeded 10^4/mL

With Nc1cccc2c1C(=O)N(C1CCC(=O)NC1=O)C2=O (stereo not shown) [pomalidomide, 4-(Amino)-2-(2,6-dioxo(3-piperidyl))-isoindoline-1,3-dione] the “CD34+ expression in the expanded population versus control” value ([1]; first experiment) was “significantly higher CD34^+ expression”, the “CD38 expression on cultured cells” value ([1]; first experiment) was “appeared to down-regulate CD38 expression” and the “cumulative colony forming units relative to expanded controls” value ([1]; first experiment) was “substantial improvement”. For the same molecule, the “CD34+ phenotype in the expanded population” value ([1]; first experiment) was 40-60%, the “CD133 level of expanded CD34+ cells” value ([1]; first experiment) was 15% and the “expanded CD34+ cells that are CD38 negative” value ([1]; first experiment) was 95%. For the same molecule, the “total nucleated cell expansion” value ([1]; first experiment) was 200-350 fold, the “CD34+ phenotype in the expanded population” value ([1]; second similar experiment) was 40-60% and the “CD133 level of expanded CD34+ cells” value ([1]; second similar experiment) was 11.5%. The “expanded CD34+ cells that are CD38 negative” value ([1]; second similar experiment) was 97%, the “total nucleated cell expansion” value ([1]; second similar experiment) was 200-350 fold and the “CD34+ expression in the expanded population versus control” value ([1]; second similar experiment) was “significantly higher CD34^+ expression”. For the same molecule, the “CD38 expression on cultured cells” value ([1]; second similar experiment) was “appeared to down-regulate CD38 expression”, the “cumulative colony forming units relative to expanded controls” value ([1]; second similar experiment) was “substantial improvement” and the “ex-vivo expansion of placental derived CD34+ progenitors” value [2] was “significantly enhanced”. The “Viability by trypan blue” value ([2]; day 12, culture bag) was 86% (range: 80-90%), the “total CD34+ cells harvested” value ([2]; day 12, culture bag) was 20 million and the “CD34+ expansion” value [2, 3] was 200 (range: 100-450) fold. The TNC expansion [2, 3] was 350 (range: 250-700) fold.
